Measured values as given in patent publication US7615356B2, “Ion channel assay methods” (Vertex Pharmaceuticals (San Diego) LLC, priority 2000, dated 2009).
Entries after “also recorded” stand apart in the source; their conditions may differ. Like-named read-outs stand apart in the source and are kept apart here.

What was measured:
[1] = test system: TTX-resistant Nav channels; conditions: cited from earlier work
[2] = biological target: endogenous NaV channels of Chinese Hamster Ovary cells (Nav 1.2a) (Cricetulus griseus, UniProt A0A8C2MK62); assay: Use-dependent block, repetitive electrical stimulation at 1 Hz, CHO cells; type: cell-based
endogenous NaV channels of Chinese Hamster Ovary cells (Nav 1.2a), sequence (A0A8C2MK62 entry or part of it): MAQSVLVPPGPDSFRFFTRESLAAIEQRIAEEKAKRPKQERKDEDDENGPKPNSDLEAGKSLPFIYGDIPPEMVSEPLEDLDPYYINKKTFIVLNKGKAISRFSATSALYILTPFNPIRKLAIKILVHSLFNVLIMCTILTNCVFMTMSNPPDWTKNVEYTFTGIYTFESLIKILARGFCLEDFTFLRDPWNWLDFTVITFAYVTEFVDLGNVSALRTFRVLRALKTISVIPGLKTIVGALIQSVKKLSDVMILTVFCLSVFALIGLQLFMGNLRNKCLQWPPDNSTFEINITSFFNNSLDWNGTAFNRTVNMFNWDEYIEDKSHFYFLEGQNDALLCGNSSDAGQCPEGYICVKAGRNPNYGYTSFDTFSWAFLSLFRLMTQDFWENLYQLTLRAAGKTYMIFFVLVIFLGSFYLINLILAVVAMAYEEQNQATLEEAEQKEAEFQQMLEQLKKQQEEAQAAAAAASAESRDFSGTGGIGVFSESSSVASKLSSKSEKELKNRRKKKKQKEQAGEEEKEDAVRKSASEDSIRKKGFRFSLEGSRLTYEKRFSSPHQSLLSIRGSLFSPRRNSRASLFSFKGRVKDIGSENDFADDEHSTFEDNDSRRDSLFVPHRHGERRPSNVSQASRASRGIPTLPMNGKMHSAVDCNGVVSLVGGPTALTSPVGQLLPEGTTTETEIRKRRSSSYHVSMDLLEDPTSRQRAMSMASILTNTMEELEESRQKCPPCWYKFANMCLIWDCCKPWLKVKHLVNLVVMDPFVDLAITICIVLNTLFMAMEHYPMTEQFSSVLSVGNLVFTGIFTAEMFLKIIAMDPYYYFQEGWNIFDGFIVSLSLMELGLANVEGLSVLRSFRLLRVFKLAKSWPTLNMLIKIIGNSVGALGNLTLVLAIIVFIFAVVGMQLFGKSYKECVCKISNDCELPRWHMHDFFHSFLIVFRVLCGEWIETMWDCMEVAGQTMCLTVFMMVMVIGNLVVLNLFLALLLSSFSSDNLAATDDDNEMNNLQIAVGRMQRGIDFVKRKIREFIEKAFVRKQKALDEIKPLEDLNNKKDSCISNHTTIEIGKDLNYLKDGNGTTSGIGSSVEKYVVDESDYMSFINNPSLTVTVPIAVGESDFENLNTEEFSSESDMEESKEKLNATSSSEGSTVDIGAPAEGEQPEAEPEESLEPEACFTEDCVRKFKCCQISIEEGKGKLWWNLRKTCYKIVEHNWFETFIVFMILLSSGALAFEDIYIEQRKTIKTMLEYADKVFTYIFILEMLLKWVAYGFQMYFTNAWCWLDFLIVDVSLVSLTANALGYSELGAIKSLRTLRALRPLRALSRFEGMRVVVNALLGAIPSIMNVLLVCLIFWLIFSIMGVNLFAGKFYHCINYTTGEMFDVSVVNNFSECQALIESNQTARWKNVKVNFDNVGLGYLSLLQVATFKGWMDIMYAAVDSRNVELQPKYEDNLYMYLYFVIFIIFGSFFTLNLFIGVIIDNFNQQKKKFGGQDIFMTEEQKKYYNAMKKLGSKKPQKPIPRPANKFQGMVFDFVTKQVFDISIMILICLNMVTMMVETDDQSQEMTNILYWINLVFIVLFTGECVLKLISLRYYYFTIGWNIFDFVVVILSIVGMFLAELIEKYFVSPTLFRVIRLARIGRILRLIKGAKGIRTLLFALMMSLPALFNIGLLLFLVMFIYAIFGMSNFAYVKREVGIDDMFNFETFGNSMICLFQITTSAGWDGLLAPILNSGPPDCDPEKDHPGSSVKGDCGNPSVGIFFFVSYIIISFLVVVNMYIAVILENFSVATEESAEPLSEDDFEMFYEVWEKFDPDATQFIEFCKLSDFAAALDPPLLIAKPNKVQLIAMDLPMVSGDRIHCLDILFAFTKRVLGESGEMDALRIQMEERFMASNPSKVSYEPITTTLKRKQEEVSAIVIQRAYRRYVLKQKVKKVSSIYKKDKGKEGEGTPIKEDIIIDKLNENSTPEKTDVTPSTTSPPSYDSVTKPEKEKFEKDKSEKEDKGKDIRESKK

Nav1.8 [3] = biological target: Nav1.8 (UniProt Q9Y5Y9); assay: Induced spontaneous firing of Nav1.8 expressing cells, high-frequency monophasic pulses; type: cell-based
[4] = test system: voltage-activated chloride and potassium channels of wild-type HEK-293 cells
HL5 cardiac muscle cells = type: cell-based
[5] = biological target: voltage dependent sodium channel (NaV1) endogenously expressed in wild type CHO cells (Cricetulus griseus, UniProt A0A8C2MK62)
voltage dependent sodium channel (NaV1) endogenously expressed in wild type CHO cells, sequence (A0A8C2MK62 1-2006): as the sequence (A0A8C2MK62 entry or part of it) above

Nav 1.2a = Nav 1.2a (Rattus norvegicus, UniProt P04775, N209D); conditions: published; cited from earlier work
Nav 1.2a, sequence (P04775 whole entry N209D): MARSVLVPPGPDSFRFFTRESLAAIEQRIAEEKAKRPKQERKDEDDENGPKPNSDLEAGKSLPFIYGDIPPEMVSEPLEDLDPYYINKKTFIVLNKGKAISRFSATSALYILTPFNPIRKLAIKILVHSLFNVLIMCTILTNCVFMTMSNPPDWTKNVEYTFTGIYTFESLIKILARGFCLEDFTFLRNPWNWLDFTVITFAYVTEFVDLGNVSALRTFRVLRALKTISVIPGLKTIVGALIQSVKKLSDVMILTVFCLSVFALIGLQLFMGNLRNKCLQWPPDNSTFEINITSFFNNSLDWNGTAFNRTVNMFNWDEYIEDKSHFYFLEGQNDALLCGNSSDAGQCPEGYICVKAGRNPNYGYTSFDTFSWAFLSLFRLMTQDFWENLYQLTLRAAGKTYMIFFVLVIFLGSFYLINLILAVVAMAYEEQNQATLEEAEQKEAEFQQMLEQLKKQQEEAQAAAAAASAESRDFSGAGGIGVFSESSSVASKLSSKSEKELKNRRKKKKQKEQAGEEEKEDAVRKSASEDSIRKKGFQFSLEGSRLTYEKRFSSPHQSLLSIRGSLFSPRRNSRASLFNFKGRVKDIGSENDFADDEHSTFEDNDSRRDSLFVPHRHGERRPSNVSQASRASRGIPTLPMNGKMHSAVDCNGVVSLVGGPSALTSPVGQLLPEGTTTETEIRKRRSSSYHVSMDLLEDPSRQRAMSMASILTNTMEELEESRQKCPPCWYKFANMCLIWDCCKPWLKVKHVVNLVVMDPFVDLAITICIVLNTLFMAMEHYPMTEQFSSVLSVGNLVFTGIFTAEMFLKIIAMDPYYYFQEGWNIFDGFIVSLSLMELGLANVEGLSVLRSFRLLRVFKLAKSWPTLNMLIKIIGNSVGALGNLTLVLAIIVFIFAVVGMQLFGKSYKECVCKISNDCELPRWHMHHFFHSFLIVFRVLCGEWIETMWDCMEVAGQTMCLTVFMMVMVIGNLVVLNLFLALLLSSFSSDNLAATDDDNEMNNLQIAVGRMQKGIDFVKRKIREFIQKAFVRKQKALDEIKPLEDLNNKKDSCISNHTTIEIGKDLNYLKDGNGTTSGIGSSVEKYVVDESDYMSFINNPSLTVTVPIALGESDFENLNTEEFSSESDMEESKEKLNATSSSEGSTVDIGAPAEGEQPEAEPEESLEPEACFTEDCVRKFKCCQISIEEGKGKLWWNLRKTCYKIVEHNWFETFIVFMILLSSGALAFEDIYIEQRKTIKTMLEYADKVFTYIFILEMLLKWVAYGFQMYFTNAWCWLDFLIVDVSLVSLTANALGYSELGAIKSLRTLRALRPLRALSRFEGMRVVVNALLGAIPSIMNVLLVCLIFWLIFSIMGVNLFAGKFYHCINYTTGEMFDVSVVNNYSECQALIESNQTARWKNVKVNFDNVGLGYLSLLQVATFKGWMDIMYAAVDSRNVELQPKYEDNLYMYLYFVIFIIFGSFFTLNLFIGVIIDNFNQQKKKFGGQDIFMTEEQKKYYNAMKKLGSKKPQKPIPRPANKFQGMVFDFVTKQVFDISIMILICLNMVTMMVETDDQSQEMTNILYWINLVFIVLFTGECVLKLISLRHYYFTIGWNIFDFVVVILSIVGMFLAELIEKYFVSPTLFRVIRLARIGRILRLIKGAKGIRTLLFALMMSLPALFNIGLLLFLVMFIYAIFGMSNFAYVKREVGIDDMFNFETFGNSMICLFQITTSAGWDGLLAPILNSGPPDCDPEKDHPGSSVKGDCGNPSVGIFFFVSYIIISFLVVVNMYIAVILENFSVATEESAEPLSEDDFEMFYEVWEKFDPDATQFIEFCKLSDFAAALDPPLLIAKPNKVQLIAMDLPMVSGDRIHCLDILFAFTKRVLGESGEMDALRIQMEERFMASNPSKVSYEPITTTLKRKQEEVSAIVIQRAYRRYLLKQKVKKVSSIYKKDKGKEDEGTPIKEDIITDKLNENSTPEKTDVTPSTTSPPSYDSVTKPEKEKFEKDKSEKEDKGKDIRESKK

[6] = biological target: potassium inward rectifier channel IRK1 (Rattus norvegicus, UniProt Q64273)
potassium inward rectifier channel IRK1, sequence (Q64273 whole entry): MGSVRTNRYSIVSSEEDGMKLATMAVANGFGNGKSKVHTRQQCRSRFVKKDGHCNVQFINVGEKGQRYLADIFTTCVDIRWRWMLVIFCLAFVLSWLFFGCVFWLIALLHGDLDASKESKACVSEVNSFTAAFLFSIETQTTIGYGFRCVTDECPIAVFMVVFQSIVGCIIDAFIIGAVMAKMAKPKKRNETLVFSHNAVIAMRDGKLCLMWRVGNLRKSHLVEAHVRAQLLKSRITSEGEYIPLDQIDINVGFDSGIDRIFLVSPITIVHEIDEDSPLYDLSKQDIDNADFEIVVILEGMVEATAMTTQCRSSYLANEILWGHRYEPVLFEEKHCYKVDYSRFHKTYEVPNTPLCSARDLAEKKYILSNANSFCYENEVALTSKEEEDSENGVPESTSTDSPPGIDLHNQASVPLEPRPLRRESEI

[7] = test system: sodium channels in dorsal root ganglion (DRG) neurons; assay: Dorsal root ganglion neuron assay, electrical stimulation at different external potassium; type: cell-based, rat; conditions: before and after addition of 16 mM potassium
Description: We have developed a dorsal root ganglion (DRG) neuron assay on the electrical stimulation with optical detection platform that allows us to detect and quantify voltage dependent blockers of the sodium channels in these neurons. The DRG neurons were dissociated from neonatal rat pups and stained with FRET voltage sensing dyes. The neurons were then placed in the middle of the well on a 96 well plate and preincubated with varying concentrations of the test compound. Electrical stimulation was applied and the resulting response recorded by the plate reader. Dose response plots were then constructed for each compound tested. Increased levels of potassium were then added to depolarize the neurons and move more of the sodium channels into the inactivated state. […] This estimates the degree of voltage or state dependence for these compounds. […] As shown, the high potassium levels depolarize the cells. The compounds' block is voltage dependent, a type of use-dependent activity. […] This example illustrates also the use of this method with primary neurons.

Nav1.8 [8] = biological target: Nav1.8 (UniProt Q9Y5Y9); assay: Paired-pulse train stimulation, recovery from block, cells expressing Nav1.8; conditions: for IC50: approximate, from previous experiment
N-type calcium channel = N-type calcium channel (Homo sapiens, UniProt Q00975); assay: Hexyl oxonol assay for use-dependent blockers of CaV; type: cell-based; conditions: 5 μM
Description: Assays can also be developed using fast membrane potential sensors, such as DISBAC6(3) and CC2-DMPE voltage-sensitive FRET probes, to detect use-dependent compounds for voltage-gated Ca targets. The following illustrative example is for an N-type calcium channel using hardware compatible with 96 well plates.
Prepare a solution of 2× CC2DMPE and DISBAC6(3) by Vortexing together 10 mM CC2DMPE (in DMSO) and 10 mM DISBAC6(3) (in DMSO) with an equivalent volume of 10% pluronic (in DMSO). Vortex in required amount of bath. Each cell plate will require 5 ml of this solution. Wash plate with a plate washer leaving a residual volume of 50 μl. Add 50 μL of 2× CC2DMPE to wells. Resulting concentrations of dyes will be 4 μM CC2-DMPE and 1.25 μM DISBAC6(3). Stain for 30 minutes in the dark at RT. The test compounds are prepared at 2× concentration in extracellular ringer solution and added to wells containing stained cells. Stimulation parameters such as stimulation frequency, pulse duration, stimulation voltage can be easily manipulated to elicit desired responses.
FIG. 40 illustrates an example of how a use-dependent compound such as mibefradil can be detected using this hexyl assay.

NaV4 sodium channel = type: cell-based; conditions: HEK-293 NaV4; 33 V/cm, 10 ms/phase biphasic, 15 Hz burst for 1.5 seconds; read-out: estimated EC50 (Hill function fit)
Excerpt: For this experiment, electrical stimulation parameters were E=33 V/cm, 10 ms/phase biphasic stimulation, 15 Hz burst for 1.5 seconds.
To determine whether the present method is generally applicable to a wide range of different sodium channels, HEK-293 cells were stably transfected with another voltage dependent sodium channel, hereinafter referred to as NaV4. These cells were transfected, selected and loaded with FRET dyes as described in section VI and Example 8.

[9] = 1 Hz stimulation, 1st peak response
[10] = 1 Hz stimulation, 20th peak response
[11] = read-out: IC50 @ 1st peak, 1 Hz stimulation, 1st peak response
[12] = read-out: IC50 @ 20th peak, 1 Hz stimulation, 20th peak response

For `CCCCN1CCCCC1C(=O)Nc1c(C)cccc1C` (centres unmarked) [Bupivacaine], the “firing rate in neuron slice preparation” value [1] is given as “slower firing rate”.
For `CCN(CC)CC(=O)Nc1c(C)cccc1C` [Lidocaine], the “use-dependent block of endogenous NaV channels” value [2] is listed as “only minor or no use-dependent block”, the “effect on induced spontaneous firing” value (Nav1.8 [3]) is listed as “gradually increased the interspike interval” and the “firing rate in neuron slice preparation” value [1] is listed as “slower firing rate”.
In the case of `CC[N+](CC)(CC)CC` [TEA, Tetraethylammonium], the “effect on the negative voltage response” value [4] is reported as “partially blocks”.
For `NC1=N[C@H](O)[C@H]2[C@H]3O[C@]4(O)O[C@@H]([C@@H](O)[C@@]2(N1)[C@@H]4O)[C@]3(O)CO` [TTX, tetrodotoxin], the “use-dependent block of endogenous NaV channels” value [2] was “only minor or no use-dependent block; also recorded: least use-dependent”, the “effect on the positive response” value (HL5 cardiac muscle cells) was “partially blocks” and the “sustained signal above 50 V/cm” value (HL5 cardiac muscle cells) was “unaffected”. For the same molecule, the Hill coefficient [5] was 1.47, the “block of the effect of electrical stimulation” value [5] was “completely block” and the EC50 ([5]; read-out: EC50 (Hill function fit to dose response)) was 0.009 µM. For the same molecule, the EC50 (NaV3 sodium channel; read-out: EC50 (Hill function fit)) was 0.025 µM.
For `CN(C)CCC=C1c2ccccc2CCc2ccccc21` [amitriptyline], the “Hill coeff. @ 1st peak” value [2] was 2.65, the “Hill coeff. @ 20th peak” value [2] was 1.07 and the “UDI (1 Hz), ratio of IC50(1st response) over IC50(20th response)” value (shortened to “UDI (1 Hz), ratio of IC50(1st response)”) [2] was 3.24. The IC50 ([2]; read-out: IC50 @ 1st peak) was 5.19 ± 1.57 µM, the IC50 ([2]; read-out: IC50 @ 20th peak) was 1.6 ± 0.38 µM and the IC50 (Nav 1.2a) was 5.5 µM.
With `[Ba+2].[Cl-].[Cl-]` [barium chloride] the “voltage change during stimulation with block” value [6] was “no detectable voltage change”.
In the case of `CCCCOc1cc(C(=O)NCCN(CC)CC)c2ccccc2n1` [dibucaine], the “UDI (1 Hz), ratio of IC50(1st response)” value ([2]; 1 Hz for 20 seconds) is reported as 2.36, the “Hill coeff. @ 1st peak” value [2, 9] is reported as 2.35 and the “Hill coeff. @ 20th peak” value [2, 10] is reported as 1.19. It also gave an IC50 [2, 11] of 1.19 ± 0.22 µM and an IC50 [2, 12] of 0.51 ± 0.11 µM.
For `Nc1nnc(-c2cccc(Cl)c2Cl)c(N)n1` [lamotrigine], the “effect on induced spontaneous firing” value (Nav1.8 [3]) was “gradually increased the interspike interval”, the “shift of dose response curve after elevated potassium” value [7] was “leftward shifted” and the IC50 (Nav1.8 [8]) was ~50 µM.
With `Cc1cccc(C)c1OCC(C)N` (centres unmarked) [mexiletine] the “Hill coeff. @ 1st peak” value [2] was 3.07, the “Hill coeff. @ 20th peak” value [2] was 0.98 and the “UDI (1 Hz), ratio of IC50(1st response)” value [2] was 2.59. For the same molecule, the IC50 ([2]; read-out: IC50 @ 1st peak) was 58.1 ± 11 µM, the IC50 ([2]; read-out: IC50 @ 20th peak) was 22.5 ± 5.31 µM and the IC50 (Nav 1.2a) was 21 to 533 µM.
With `COCC(=O)O[C@]1(CCN(C)CCCc2nc3ccccc3[nH]2)CCc2cc(F)ccc2[C@@H]1C(C)C` [mibefradil] the “change in response lineshape” value (N-type calcium channel) was “use-dependent block”.
With `CCCCNc1ccc(C(=O)OCCN(C)C)cc1` [tetracaine] the EC50 (NaV4 sodium channel) was 35 µM, the “UDI (1 Hz), ratio of IC50(1st response)” value ([2]; 1 Hz for 20 seconds) was 8.40 and the “use-dependent block of endogenous NaV channels” value ([2]; 1 Hz for 20 seconds, in words) was “decreased ratio of last peak response over first peak response and more additional block than TTX and most”. The “Hill coeff. @ 1st peak” value [2, 9] was 1.81, the “Hill coeff. @ 20th peak” value [2, 10] was 0.66 and the IC50 [2, 11] was 2.77 ± 1.23 µM. For the same molecule, the IC50 [2, 12] was 0.33 ± 0.2 µM, the “shift of dose response curve after elevated potassium” value [7] was “leftward shifted” and the EC50 (NaV3 sodium channel; read-out: EC50 (fit to dose-response curve), HEK-293 NaV3, 33 V/cm, 10 ms/phase biphasic, 15 Hz burst for 1.5 seconds) was 11 µM. The “time to recover from use-dependent block” value (Nav1.8 [8]; 4 μM) was “approximately 1000 ms” and the IC50 (Nav1.8 [8]) was ~4 µM.
For `COC(=O)[C@@H]1[C@H]2C[C@H]3c4[nH]c5ccccc5c4CCN3C[C@@H]2CC[C@@H]1O` [yohimbine], the “UDI (1 Hz), ratio of IC50(1st response)” value ([2]; 1 Hz for 20 seconds) was 5.67, the “Hill coeff. @ 1st peak” value [2, 9] was 2.05 and the IC50 ([2]; 1 Hz stimulation, 1st peak response, read-out: IC50 @ 1st peak) was 26.7 ± 7.26 µM. For the same molecule, the “Hill coeff. @ 20th peak” value [2, 10] was 0.99 and the IC50 ([2]; 1 Hz stimulation, 20th peak response, read-out: IC50 @ 20th peak) was 4.7 ± 1.94 µM.
